# Experimental data taken from patent US20030087947A1, “Novel photosensitizers of 9-hydroxypheophorbide-a derivatives used for photodynamic therapy” (priority 2000, published 2003).
# Tests used:
# [1] = decomposing slowly in the room temperature; cited from earlier work
# [2] = system: lung cancer A549 cell line; experiment: In-vitro photodynamic therapy efficacy (cell death after irradiation); assay type: cell-based
# Method: The cell line added with “Photogem” was treated and irradiated by red light (570˜650 nm, 0.35 mW/cm^2, 315 J/m^2) from fluorescent lamp and the test sample was treated and irradiated by same red light and laser (660 nm, 0.35 mW/cm^2, 315 J/m^2). After irradiation treatment, the cell line was cultured by adding new medium and 10% of fetal calf serum at 37° C. The cytotoxicity was measured by clonogenic assay after 8 days.
# The dose-response curve was prepared after following treatment; i) treating each 25 µg/ml of Photogem, 10-hydroxypheophytin-a and 9-hydroxypheophorbide-a (“9-HPbD-a”) to each cell line; ii) laying them for 2 hours; and iii) treating and irradiating the 660 nm light (315 J/m^2). To the Photogem sample, the light (630±10 nm) was used by 1 KW Xenon lamp (Model A 5000; Photon Technology International Inc.; Power density 75 mW/cm^2) equipped with 5 mm diameter of liquid light guide (2000A, Luminex, Munich, Germany).
# (§1) In order to minimize the side light reaction by natural light and lamp, the cell distribution and medium exchange were carried out in green light (500 nm), where the experimental samples were not reacted. After 75 μg/ml of reagent treatment on each 10 dishes at the dark culture room, the experimental samples were cultured for 48 hours. Then, the cell death rate was measured. The data was calculated as a mean value after 5 times experiments. […] Further, the cytotoxicity of 9-HPbD-a could be neglectable.
# Further, in a small amount (0.75 μg/ml), high cell death effect was detected. Using another synthesized compound of 9-HPbD-a in the other batch, the experiment was performed according to same protocol again. We detected the same result through the repeated experiments.
# With a very small amount 0.0185 μg/ml of administration, the cell death treated with 9-HPbD-a occurred according to the increase of total light dose.
# [3] = system: lung cancer A549 cell line; experiment: Cytotoxicity of photosensitizer without irradiation (dark culture, cell death rate); assay type: cell-based; conditions: 75 μg/ml, dark culture room, 48 hours, no irradiation, mean of 5 experiments
# Method: as §1
# [4] = when used in more than a certain amount; cited from earlier work
# SNU-1041 implanted tumor [5] = experiment: Photodynamic therapy using 9-HPbD-a (6 groups, tumor volume and RTG); assay type: in vivo, nude mice BALB/C/nu/nu
# Method: The experimental groups were divided into 6 groups when the volume of implanted tumor became about 100˜600 mm^3. Following treatment was performed and the change of tumor was observed.
# With only 0.1˜0.15 ml of administration of 9-HPbD-a and liposome conjugate into the tumor, the change of tumor was observed without irradiation.
# With only 0.1˜0.15 ml of administration of Photogem into the tumor, the change of tumor was observed without irradiation.
# 0.1˜0.15 ml of Photogem was administered into the tumor.
# 0.1˜0.15 ml of 9-HPbD-a and liposome conjugate was administered into the tumor.
# The photodynamic therapy was initiated after 2 weeks from implantation of cancer cell line, when the volume of tumor became about 100˜600 mm^3 (FIG. 6).
# The measurements of tumor volume were carried out at the time of just before administration of test material; just after administration of 9-HPbD-a; 1 week after administration; 2 weeks after administration; 3 weeks after administration; and 4 weeks after administration. The anti-cancer effect was evaluated by the volume of tumor. The calculation of volume was carried out by using following equation.
# (V=volume, A=long axis, B=short axis, C=height)
# The evaluation of anti-cancer effect was decided after 4 weeks observation of tumor volume. […] FIG. 7 is a photograph showing that the tumor is treated by administration of 9-HPbD-a with 660 nm diode laser irradiation.
# SNU-1041 implanted tumor [6] = experiment: Therapeutic effect at the implanted tumor (3 groups, bare fiber tip laser); assay type: in vivo, nude mice BALB/C/nu/nu; conditions: among 10 cases; intratumoral injection 0.1˜0.2 ml, 660 nm diode laser after 1˜4 hours
# Method: As experimental animals, 6 weeks aged male nude mice BALB/C/nu/nu were employed, supplying sterilized water and sterilized feed. These animals were bred in filter-top cage under proper temperature and moisture. To implant cultured cancer cell lines into nude mouse, 0.1 ml of SNU-1041 cell line suspension (10^7 cells/0.1 ml) was injected subcutaneously. After injection, the tumor occurred and the volume of tumor became increased after more than 8 weeks observation.
# Plain melanoma cell line SNU-1041 was implanted into nude mouse. After the lapse of 8 weeks, it was observed that the tumor became spread in all body. The photodynamic therapy was performed only after the tumor volume became 100˜600 mm^3.
# The experimental groups were divided into 3 groups for photodynamic therapy. 660 nm diode laser was inserted and irradiated using bare fiber tip. By monitoring the temperature outside of the tumor, the therapeutic effect caused by hyperthermia was removed. The optimal irradiation strength and time were measured.
# The photodynamic therapy was performed when the volume of implanted tumor became about 100˜600 mm^3. The experimental groups were divided into 3 groups.
# 0.1˜0.2 ml of 9-HPbD-a (0.75 mg/ml) was injected into tumor using 30G syringe. After 1˜4 hours, 660 nm diode laser was irradiated using […] fiber optic tip. […]
# cancer cell line = experiment: FACS analysis of cell cycle; assay type: cell-based; conditions: FACS analysis after treatment
# cyclin B1 = experiment: Western blot analysis of cell cycle regulation during photodynamic therapy; assay type: cell-based; conditions: 75˜0.0185 μg/ml, 20 joule total light dose
# Method: FIG. 1 is a photograph showing cell cycle regulation after treating 9-hydroxypheophorbide-a of formula (I) to the cancer cell line.
# The change of cell cycle is a key element for evaluating cancer treatment. In most anti-cancer agents, the growth of cancer cells is suppressed by regulating the expression of cell cycle regulation gene. In this example, the change of cell cycle was measured using 9-HPbD-a during the photodynamic therapy. Using various cencentrations of photosensitizer (75˜0.0185 μg/ml) under 20 joule in total light dose, Western blot analysis was carried out to detect the change of cell cycle in accordance with change of regulation activity of cell cycle regulation gene.
# [7] = 0.0185 μg/ml, total light dose 100 joule
# [8] = 0.0375 μg/ml, total light dose 100 joule
# [9] = 0.075 μg/ml, total light dose 100 joule
# [10] = 0.75 μg/ml, total light dose 20 joule, 665 nm monochromatic light
# [11] = 0.75 μg/ml, total light dose 100 joule
# [12] = 7.5 μg/ml, total light dose 20 joule, 665 nm monochromatic light
# [13] = 75 μg/ml, total light dose 20 joule, 665 nm monochromatic light
# [14] = after 4 weeks from treatment, administration into tumor with 660 nm diode laser irradiation
compound,measurement,setting,value
C=Cc1c(C)c2cc3nc(c4c5[nH]c(cc6nc(cc1[nH]2)C(C)=C6CC)c(C)c5C(=O)[C@@H]4C(=O)OC)[C@@H](CCC(=O)O)[C@@H]3C [pheophorbide-a],Stability,[1],low stability
"C=Cc1c(C)c2cc3nc(c4c5[nH]c(cc6nc(cc1[nH]2)C(C)=C6CC)c(C)c5C(=O)C4(O)C(=O)OC)C(CCC(=O)OCC=C(C)CCCC(C)CCCC(C)CCCC(C)C)C3C (stereo not drawn) [10-hydroxypheophytin-a, reference compound]",Efficacy (cell death),[2]; [7],0%
same,Efficacy (cell death),[2]; [8],0%
same,Efficacy (cell death),[2]; [9],0%
same,Efficacy (cell death),[2]; [10],0%
same,Efficacy (cell death),[2]; [11],5.85%
same,Efficacy (cell death),[2]; [12],5˜10%
same,Efficacy (cell death),"[2]; 7.5 μg/ml, total light dose 100 joule",100%
same,Efficacy (cell death),[2]; [13],<70%
same,Cytotoxicity (cell death rate),[3],3.94%
same,Toxicity,[4],fatal toxicity
"C=Cc1c(C)c2cc3nc(c4c5[nH]c(cc6nc(cc1[nH]2)C(C)=C6CC)c(C)c5C(O)[C@@H]4C(=O)OC)[C@@H](CCC(=O)O)[C@@H]3C (stereo partly drawn) [9-HPbD-a, 9-hydroxypheophorbide-a]",Efficacy (cell death),[2]; [7],10%
same,Efficacy (cell death),[2]; [8],25%
same,Efficacy (cell death),[2]; [9],100%
same,Efficacy (cell death),[2]; [10],10˜20%
same,Efficacy (cell death),[2]; [11],100%
same,Efficacy (cell death),[2]; [12],100%
same,Efficacy (cell death),[2]; [13],100%
same,"Concentration, relative to known photosensitizer concentration, showing considerable cell death effect","[2]; A549, total light dose 20 joule",1/100
same,Cytotoxicity (cell death rate),[3],10.05%
same,Relative tumor growth (RTG),SNU-1041 implanted tumor [5]; [14],3.5
same,Volume of tumor,SNU-1041 implanted tumor [5]; [14],646 mm^3
same,Change of tumor volume,"SNU-1041 implanted tumor [5]; photosensitizer into the tumor only, without irradiation (Group 3 and 4)",no observation of decline of tumor volume
same,Cases showing complete elimination of tumor,SNU-1041 implanted tumor [6],3 cases
same,Cases showing partial elimination of tumor,SNU-1041 implanted tumor [6],7 cases
same,Cell cycle effect,cancer cell line,cell cycle arrest occurred in G2/M cell cycle
same,Amount of cyclin B1,cyclin B1,rapidly declined
